≈ marks a conversion by molar mass, not a printed value. Where two headings read alike, the source gives them in different places.

The experiment concerns E. coli ATCC 25922. The experiment in a line: MIC against E. coli ATCC 25922. The note with it: Escherichia coli. The class given is cell-based.

For the molecule `CN(C)[C@@H]1C(O)=C(C(N)=O)C(=O)[C@@]2(O)C(O)=C3C(=O)c4c(O)cccc4[C@@](C)(O)[C@H]3[C@H](O)[C@@H]12` [oxytetracycline], the MIC by setting is: (ATCC25922, read-out: oxytetracycline + 32 μg/mL tyrobetaine MIC) 8 µg/mL; (ATCC25922, read-out: oxytetracycline MIC) 4 µg/mL (≈ 8.69 µM).

The values are drawn from PMC5944846 (ACS chemical biology, 2018).
